Assay results reported in ChEMBL document CHEMBL1145045 (J Med Chem, 2003).

Target: Major prion protein
Assay: Half maximal inhibition of Prion protein PrPsc formation was assayed in ScN2a cells
Assay type: cell-based

| Structure (SMILES) | EC50 [µM] |
| --- | --- |
| CC(=O)c1ccc2c(c1)N(CCCN(C)C)c1ccccc1S2 [ACEPROMAZINE] | 5 |
| NC(=O)N1c2ccccc2C=Cc2ccccc21 [CARBAMAZEPINE] | > 10 |
| CCN(CC)CCCC(C)Nc1ccnc2cc(Cl)ccc12 (stereo not drawn) [CHLOROQUINE] | 4 |
| CN(C)CCCN1c2ccccc2Sc2ccc(Cl)cc21 [CHLORPROMAZINE] | 2 |
| O=C(CCCN1CCC(O)(c2ccc(Cl)cc2)CC1)c1ccc(F)cc1 [HALOPERIDOL] | > 10 |
| c1ccc2nc3ccccc3nc2c1 [PHENAZINE] | > 10 |
| CN(C)CCCN1c2ccccc2Sc2ccccc21 [PROMAZINE] | 5 |
| CC(CN1c2ccccc2Sc2ccccc21)N(C)C (stereo not drawn) [PROMETHAZINE] | 8 |
